{"source": "patent US6479454B1", "about": "“Antimicrobial compositions and methods containing hydrogen peroxide and octyl amine oxide” (Ecolab Inc., priority 2000, dated 2002)", "key": {"Pseudomonas aeruginosa": {"test_system": "Pseudomonas aeruginosa", "assay": "Minimal Bactericidal Concentration (MBC), Ecolab S.O.P. Method MS009 (A.O.A.C. Method 960.09)", "type": "cell-based", "description": "The term Minimal Bactericidal Concentration is used in the present invention to mean a 5 log reduction in microbe count.\nAn experiment was conducted to determine the Minimal Bactericidal Concentration (MBC) of octyldimethylamine oxide alone, hydrogen peroxide alone and two mixtures of octyldimethylamine oxide with hydrogen peroxide against Pseudomonas aeruginosa. Experiments were conducted using standard bacteriological techniques, specifically Ecolab Microbiological Services S.O.P. Method MS009 (reference to A.O.A.C. Method 960.09). […] The 50%/50% relative composition of amine oxide:hydrogen peroxide has a pH of 7.4 and an oxidation potential of 250 mV when diluted to 1.7% total oxidizer."}, "Salmonella javiana": {"test_system": "Salmonella javiana", "assay": "Antimicrobial activity (log reduction) on a tomato surface", "type": "cell-based", "description": "A second experiment was conducted to determine the synergistic effects of mixing an amine oxide, peracetic acid and hydrogen peroxide. Combinations of peracetic acid and hydrogen peroxide were measured in the presence and absence of a tetradecyl-dimethylamine oxide for antimicrobial activity against Salmonella javiana. Testing was performed on a tomato surface."}}, "data": [{"smiles": "OO", "note": "[0/100, hydrogen peroxide]", "values": [{"measurement": "MBC ppm peroxide", "setting": "Pseudomonas aeruginosa; MBC = 5 log reduction in microbe count, expressed as hydrogen peroxide concentration", "value": ">2,000 ppm"}]}, {"smiles": "CCCCCCCC[N+](C)(C)[O-]", "note": "[100/0, octyldimethylamine oxide]", "values": [{"measurement": "concentration required to obtain MBC", "setting": "Pseudomonas aeruginosa; MBC = 5 log reduction", "value": "greater than 2000 parts per million"}, {"measurement": "MBC", "setting": "Pseudomonas aeruginosa; Pseudomonas aeruginosa, MBC = 5 log reduction in microbe count, expressed as octyldimethylamine oxide concentration, read-out: MBC ppm amine oxide", "value": "> 2000", "unit": "µg/mL"}]}, {"smiles": "CCCCCCCCCCCCCC[N+](C)(C)[O-]", "note": "[Amine Oxide Alone, tetradecyl-dimethylamine oxide]", "values": [{"measurement": "Log Reduction (S. Javiana)", "setting": "Salmonella javiana; ppm of each component as given in the table row", "value": "<0.2"}, {"measurement": "antimicrobial activity against S. javiana (in words)", "setting": "Salmonella javiana; text summary of Table II", "value": "fairly ineffective"}]}]}
